We go through 16 compounds from ChEMBL document CHEMBL1123048 (J Med Chem, 1985).

Converted amounts (≈) assume the structure as drawn.

Series [1] concerns the target T1, Adenosine receptor A1 (Rattus norvegicus, UniProt P25099).
T1 sequence (P25099 whole entry): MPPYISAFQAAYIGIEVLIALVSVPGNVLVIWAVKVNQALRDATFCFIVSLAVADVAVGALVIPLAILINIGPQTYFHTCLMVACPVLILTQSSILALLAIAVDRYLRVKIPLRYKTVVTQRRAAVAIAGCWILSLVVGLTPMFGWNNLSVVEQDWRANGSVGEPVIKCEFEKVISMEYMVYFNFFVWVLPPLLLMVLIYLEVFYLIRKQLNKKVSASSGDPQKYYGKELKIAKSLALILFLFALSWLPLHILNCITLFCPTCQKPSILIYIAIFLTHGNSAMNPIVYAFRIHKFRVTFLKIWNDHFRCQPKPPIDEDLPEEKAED
Description: Binding affinity towards adenosine A1 receptor in rat cerebral cortical membranes by [3H]cyclohexyladenosine displacement.

Series [2] can be described thus: Solubility in 0.1 M sodium phosphate, and at pH 7.2. The series is classed as physicochemical. As to conditions: 0.1 M sodium phosphate buffer.
The target of series [3] is T1, Adenosine receptor A1. The series is described as follows: Binding affinity towards adenosine A1 receptor in rat cerebral cortical membranes with 1 nM [3H]cyclohexyladenosine. The series is classed as cell membranes.
In series [4] the target is Adenosine A2 receptor (Cavia porcellus).
The target is the same in series [5]. Kind of series: Binding affinity against A2 adenosine receptor in [3H]adenine-labeled guinea pig cerebral cortical slices.

Turning to `CCCn1c(=O)c2nc(-c3ccc(OCC(=O)NCCNC(C)=O)cc3)[nH]c2n(CCC)c1=O`, on Adenosine receptor A1 [1], the Ki was 0.024 µM.
Still for that read-out and setting: the value for `CCCn1c(=O)c2nc(-c3ccc(OCC(=O)N(C)C)cc3)[nH]c2n(CCC)c1=O` was 0.032 µM.
`CCCn1c(=O)c2[nH]c(-c3ccc(OCC(N)=O)cc3)nc2n(CCC)c1=O` had a solubility in series [2] of 26 µM (≈ 10 µg/mL). The affinity at Adenosine receptor A1 [3], expressed as Ki, was 0.006 µM.
In series [4], `CCCn1c(=O)c2nc(-c3ccc(OCC(=O)ON4C(=O)CCC4=O)cc3)[nH]c2n(CCC)c1=O` displayed a Ki of 0.04 µM.
`CCCn1c(=O)c2nc(-c3ccc(O)cc3)[nH]c2n(CCC)c1=O` displayed a solubility in series [2] of 3.2 µM (≈ 1.05 µg/mL).
For the compound `CCCn1c(=O)c2nc(-c3ccc(OCC(=O)OCC)cc3)[nH]c2n(CCC)c1=O`, the Ki in series [4] was 0.03 µM.
`CCCn1c(=O)c2nc(-c3ccc(OCC(=O)NCCNC(=O)CCCCC4SCC5NC(=O)NC54)cc3)[nH]c2n(CCC)c1=O` (stereo not drawn): the results for the Ki (in series [5]; on Adenosine receptor A1 [1]) were 0.18 µM and 0.054 µM, respectively.
Turning to `Cn1c(=O)c2nc(-c3ccc(OCC(=O)O)cc3)[nH]c2n(C)c1=O`, the Ki in series [4] was determined as 0.43 µM; on Adenosine receptor A1 [1], 0.5 µM.
`CCCn1c(=O)c2nc(-c3ccc(OCC(=O)NN)cc3)[nH]c2n(CCC)c1=O` displayed a Ki on Adenosine receptor A1 [1] of 0.059 µM. This lies in the double-digit nanomolar range.
Compound `CCCn1c(=O)c2nc(-c3ccc(OCC(=O)N(C(=O)NC4CCCCC4)C4CCCCC4)cc3)[nH]c2n(CCC)c1=O` had a Ki at Adenosine receptor A1 [1] of 0.096 µM. Compared with the last compound, the Ki is about 1.6-fold higher.
Turning to `CC(=O)O.CCCn1c(=O)c2nc(-c3ccc(OCC(=O)NCCN(CC)Cc4ccc(O)cc4)cc3)[nH]c2n(CCC)c1=O`, the Ki worked out at 0.32 µM in series [4] and 0.0022 µM on Adenosine receptor A1 [1].
For the compound `CCCn1c(=O)c2nc(-c3ccc(OCC(=O)NCCCCCCCCN)cc3)[nH]c2n(CCC)c1=O`, the Ki worked out at 0.47 µM in series [4] and 0.005 µM on Adenosine receptor A1 [1].
For `CCCn1c(=O)c2nc(-c3ccc(OCC(=O)Nc4ccc(C)cc4)cc3)[nH]c2n(CCC)c1=O`, the Ki in series [4] was 0.75 µM; on Adenosine receptor A1 [1], 0.036 µM.
In turn, `Cc1ccc(NC(=O)COc2ccc(-c3nc4c(=O)n(C)c(=O)n(C)c4[nH]3)cc2)cc1` showed a Ki on Adenosine receptor A1 [1] of 0.026 µM.
With `CCCn1c(=O)c2nc(-c3ccc(OCC(=O)Nc4ccc(O)cc4)cc3)[nH]c2n(CCC)c1=O`, the figures for the Ki (in series [4]; at Adenosine receptor A1 [1]) were 0.062 µM and 0.0041 µM, respectively.
For `CCCn1c(=O)c2[nH]c(-c3ccc(OCC(=O)NCCN)cc3)nc2n(CCC)c1=O` [XANTHINE AMINE CONGENER], in series [2], the solubility is 90 µM (≈ 38.6 µg/mL).

Usually Ki stands for the equilibrium dissociation constant of an inhibitor or competing ligand from its target. A word on the solubility: it is the concentration that dissolves in the medium under given conditions.
